# Reference: patent publication US20230392126A1, “TISSUE ORGANOIDS” (priority 2016, published 2023)
# What was measured:
# [1] = GLP1 level in blood by ELISA, CD1 mice grafted with mouse skin organoids; type: in vivo
# Description: To investigate the potential therapeutic effect of GLP1 in vivo, skin organoid cultures with epidermal keratinocytes targeted with a GLP1-expression vector or a control vector, and transplant the organoids to CD1 host animals (FIGS. 11A and 11B-C) were prepared. […] Expression of GLP1 in grafted animals was stable for more than 3 months (FIG. 11K).
# [2] = Intraperitoneal glucose tolerance test (IPGTT) in grafted mice fed HFD; type: in vivo, mouse
# Description: For glucose tolerance testing, an intraperitoneal glucose tolerance test (IPGTT) was performed on mice fed an HFD for 10 weeks. Mice were fasted for 6 h before the test. Animals were injected (1 g/kg glucose/body weight, i.p.) with glucose dissolved in saline, and blood glucose was measured at 0, 10, 20, 30, 60 and 90 minutes using glucose test strips and glucose meters.
# IPGTT was performed to examine glucose homeostasis.
# For glucose and insulin tolerance tests, an intraperitoneal glucose tolerance test (IPGTT) was performed on mice fed an HFD for 10 weeks. Mice were fasted for 6 h before the test. Animals were injected (1 g/kg glucose/body weight, i.p.) with glucose dissolved in saline, and blood glucose was measured at 0, 30, 60 and 90 min using glucose test strips and glucose meters. An intraperitoneal insulin tolerance test was carried out 1 week after IPGTT. Mice were fasted for 4 h and injected (2 U/kg, i.p.) with insulin purchased from Sigma (St. Louis, MO). Blood glucose levels were determined thereafter at 0, 30, 60 and 90 min.
# To examine glucose homeostasis, IPGTT (intraperitoneal glucose tolerance test) and ITT (insulin tolerance test) were performed.
# [3] = Obesity induced by high fat diet in grafted mice; type: in vivo, mouse
# Description: (§1) Male CD-1 mice with skin transplants were housed (5 per cage, ˜8 weeks old) in a central-controlled animal facility for air, humidity and temperature. These mice were fed either a regular chow or an HFD (60% kcal from fats, 20% from carbohydrates, and 20% from proteins) purchased from Bio-Serv (Frenchtown, NJ). Body weight and food intake were measure biweekly.
# To examine the potential applicability in diet-induced obesity and diabetes, GLP1/GGBP-expressing cells and control cells (GGBP alone) were transplanted into two cohorts of CD1 adult male mice. The mice were fed a high fat diet (HFD) to induce obesity in grafted animals. Compared with animals on a regular chow diet, the HFD greatly accelerated body weight gain in mice grafted with control cells.
# as §1, with “mice” for “mice with skin transplants”, “humidity,” for “humidity”
# To examine the potential effect in diet-induced obesity and diabetes, GLP1-expressing cells and control cells were grafted onto two cohorts of CD1 adult mice, and a high fat diet (HFD) was used to induce obesity in the grafted animals. Doxycycline was applied to half of the animals to induce expression of GLP1. To minimize gender difference, only male animals were used. Compared with animals on regular chow diet, HFD greatly accelerated body weight gain in mice grafted with control cells or GLP1 cells without doxycycline treatment.
# [4] = system: human epidermal keratinocytes; assay: Cell proliferation and differentiation of engineered human epidermal cells in vitro; type: cell-based
# Description: Primary human neonatal epidermal keratinocytes were obtained from Thermo Fischer® (C0015C), and cultured with Epilife® medium (Thermo Fischer, M-EPICF-500) with manufacturer's recommended procedures. Calcium shift was performed to induce differentiation of primary keratinocytes by increasing the calcium concentration in culture media to 1.5 mM.
# Propidium iodide (PI) staining followed by flow cytometry were used to determine the effect of cell cycle profiles. Mouse and human epidermal cells were cultured in two 6 cm cell culture dish for 24 hours, respectively. Cells were trypsinized, and 1×10^5 cells from each dish were collected, followed by one PBS wash. […] After staining, the cells were analyzed immediately using flow cytometer BD FACSCanto™ II (BD Biosciences, San Jose, CA) with an excitation wavelength at 488 nm and emission at 585 nm. DNA content and histograms of cell cycle distribution were analyzed using FlowJo™ software, version 10 (FLOWJO LLC, OR).
# Western blotting was performed as described previously (Blanpain et al.). […] Visualization and quantification was carried out with the LI-COR Odyssey® scanner and software (LI-COR Biosciences).
# Propidium iodide (PI) staining followed by flow cytometry were used to determine the effect of cell cycle profiles. […] DNA content and histograms of cell cycle distribution were analyzed using FlowJo™ software, version 10 (FLOWJO LLC, OR). […]
substance,measurement,setting,value
GLP1,level of GLP1 in the blood,[1]; food containing doxycycline,significantly enhanced level of GLP1 in the blood
same,duration of stable GLP1 expression in grafted animals,"[1]; mouse, in vivo",more than 3 months
same,glycemic excursion,"[2]; GLP1/GGBP grafts, blood glucose and GGBP imaging",significantly reduced glycemic excursion
same,glycemic excursion,"[2]; HFD, doxycycline-induced GLP1",significantly reduced glycemic excursion
same,body weight increase,"[3]; HFD, GLP1/GGBP-expressing grafts vs GGBP alone, CD1 male mice",significant inhibition in body weight increase
same,body weight,"[3]; HFD, doxycycline-induced GLP1 expression, CD1 male mice",significant decrease in body weight
same,HFD-induced adipocyte hypertrophy in white fat tissue,[3]; doxycycline-induced GLP1 expression,dramatically suppressed this effect
same,effect of expression on cell proliferation / differentiation in vitro,[4],did not significantly change cell proliferation
